# Results: the NIST ThermoML archive (doi:10.1016/j.jct.2006.09.008)
# ± gives the expanded uncertainty stated by the source.
# Experiment: molar heat capacity at constant pressure; mn = molality of the nth substance listed, in mol/kg
# Details: 350 kPa, Liquid
structure (smiles),measurement,setting,value
O=[N+]([O-])[O-].O=[N+]([O-])[O-].[Mn+2] [manganese nitrate] + O,molar heat capacity at constant pressure,"278.15 K, m1 = 0.0132",75.63 ± 0.3 J/K/mol
same,molar heat capacity at constant pressure,"278.15 K, m1 = 0.0248",75.56 ± 0.3 J/K/mol
same,molar heat capacity at constant pressure,"278.15 K, m1 = 0.0503",75.42 ± 0.3 J/K/mol
same,molar heat capacity at constant pressure,"278.15 K, m1 = 0.0825",75.25 ± 0.3 J/K/mol
same,molar heat capacity at constant pressure,"278.15 K, m1 = 0.0836",75.25 ± 0.3 J/K/mol
same,molar heat capacity at constant pressure,"278.15 K, m1 = 0.1542",74.9 ± 0.3 J/K/mol
same,molar heat capacity at constant pressure,"278.15 K, m1 = 0.3085",74.27 ± 0.3 J/K/mol
same,molar heat capacity at constant pressure,"278.15 K, m1 = 0.5132",73.62 ± 0.29 J/K/mol
same,molar heat capacity at constant pressure,"283.15 K, m1 = 0.0132",75.47 ± 0.3 J/K/mol
same,molar heat capacity at constant pressure,"283.15 K, m1 = 0.0248",75.41 ± 0.3 J/K/mol
same,molar heat capacity at constant pressure,"283.15 K, m1 = 0.0503",75.28 ± 0.3 J/K/mol
same,molar heat capacity at constant pressure,"283.15 K, m1 = 0.0825",75.14 ± 0.3 J/K/mol
same,molar heat capacity at constant pressure,"283.15 K, m1 = 0.0836",75.13 ± 0.3 J/K/mol
same,molar heat capacity at constant pressure,"283.15 K, m1 = 0.1542",74.83 ± 0.3 J/K/mol
same,molar heat capacity at constant pressure,"283.15 K, m1 = 0.3085",74.27 ± 0.3 J/K/mol
same,molar heat capacity at constant pressure,"283.15 K, m1 = 0.5132",73.71 ± 0.29 J/K/mol
same,molar heat capacity at constant pressure,"288.15 K, m1 = 0.0132",75.36 ± 0.3 J/K/mol
same,molar heat capacity at constant pressure,"288.15 K, m1 = 0.0248",75.31 ± 0.3 J/K/mol
same,molar heat capacity at constant pressure,"288.15 K, m1 = 0.0503",75.19 ± 0.3 J/K/mol
same,molar heat capacity at constant pressure,"288.15 K, m1 = 0.0825",75.07 ± 0.3 J/K/mol
same,molar heat capacity at constant pressure,"288.15 K, m1 = 0.0836",75.06 ± 0.3 J/K/mol
same,molar heat capacity at constant pressure,"288.15 K, m1 = 0.1542",74.79 ± 0.3 J/K/mol
same,molar heat capacity at constant pressure,"288.15 K, m1 = 0.3085",74.3 ± 0.3 J/K/mol
same,molar heat capacity at constant pressure,"288.15 K, m1 = 0.5132",73.8 ± 0.29 J/K/mol
same,molar heat capacity at constant pressure,"293.15 K, m1 = 0.0132",75.29 ± 0.3 J/K/mol
same,molar heat capacity at constant pressure,"293.15 K, m1 = 0.0248",75.24 ± 0.3 J/K/mol
same,molar heat capacity at constant pressure,"293.15 K, m1 = 0.0503",75.14 ± 0.3 J/K/mol
same,molar heat capacity at constant pressure,"293.15 K, m1 = 0.0825",75.02 ± 0.3 J/K/mol
same,molar heat capacity at constant pressure,"293.15 K, m1 = 0.0836",75.02 ± 0.3 J/K/mol
same,molar heat capacity at constant pressure,"293.15 K, m1 = 0.1542",74.78 ± 0.3 J/K/mol
same,molar heat capacity at constant pressure,"293.15 K, m1 = 0.3085",74.34 ± 0.3 J/K/mol
same,molar heat capacity at constant pressure,"293.15 K, m1 = 0.5132",73.88 ± 0.3 J/K/mol
same,molar heat capacity at constant pressure,"298.15 K, m1 = 0.0132",75.24 ± 0.3 J/K/mol
same,molar heat capacity at constant pressure,"298.15 K, m1 = 0.0248",75.2 ± 0.3 J/K/mol
same,molar heat capacity at constant pressure,"298.15 K, m1 = 0.0503",75.1 ± 0.3 J/K/mol
same,molar heat capacity at constant pressure,"298.15 K, m1 = 0.0825",75 ± 0.3 J/K/mol
same,molar heat capacity at constant pressure,"298.15 K, m1 = 0.0836",75 ± 0.3 J/K/mol
same,molar heat capacity at constant pressure,"298.15 K, m1 = 0.1542",74.78 ± 0.3 J/K/mol
same,molar heat capacity at constant pressure,"298.15 K, m1 = 0.3085",74.38 ± 0.3 J/K/mol
same,molar heat capacity at constant pressure,"298.15 K, m1 = 0.5132",73.96 ± 0.3 J/K/mol
same,molar heat capacity at constant pressure,"303.15 K, m1 = 0.0132",75.21 ± 0.3 J/K/mol
same,molar heat capacity at constant pressure,"303.15 K, m1 = 0.0248",75.17 ± 0.3 J/K/mol
same,molar heat capacity at constant pressure,"303.15 K, m1 = 0.0503",75.08 ± 0.3 J/K/mol
same,molar heat capacity at constant pressure,"303.15 K, m1 = 0.0825",74.99 ± 0.3 J/K/mol
same,molar heat capacity at constant pressure,"303.15 K, m1 = 0.0836",74.99 ± 0.3 J/K/mol
same,molar heat capacity at constant pressure,"303.15 K, m1 = 0.1542",74.78 ± 0.3 J/K/mol
same,molar heat capacity at constant pressure,"303.15 K, m1 = 0.3085",74.42 ± 0.3 J/K/mol
same,molar heat capacity at constant pressure,"303.15 K, m1 = 0.5132",74.04 ± 0.3 J/K/mol
same,molar heat capacity at constant pressure,"308.15 K, m1 = 0.0132",75.2 ± 0.3 J/K/mol
same,molar heat capacity at constant pressure,"308.15 K, m1 = 0.0248",75.16 ± 0.3 J/K/mol
same,molar heat capacity at constant pressure,"308.15 K, m1 = 0.0503",75.08 ± 0.3 J/K/mol
same,molar heat capacity at constant pressure,"308.15 K, m1 = 0.0825",74.99 ± 0.3 J/K/mol
same,molar heat capacity at constant pressure,"308.15 K, m1 = 0.0836",74.99 ± 0.3 J/K/mol
same,molar heat capacity at constant pressure,"308.15 K, m1 = 0.1542",74.8 ± 0.3 J/K/mol
same,molar heat capacity at constant pressure,"308.15 K, m1 = 0.3085",74.46 ± 0.3 J/K/mol
same,molar heat capacity at constant pressure,"308.15 K, m1 = 0.5132",74.11 ± 0.3 J/K/mol
same,molar heat capacity at constant pressure,"313.15 K, m1 = 0.0132",75.2 ± 0.3 J/K/mol
same,molar heat capacity at constant pressure,"313.15 K, m1 = 0.0248",75.16 ± 0.3 J/K/mol
same,molar heat capacity at constant pressure,"313.15 K, m1 = 0.0503",75.09 ± 0.3 J/K/mol
same,molar heat capacity at constant pressure,"313.15 K, m1 = 0.0825",75.01 ± 0.3 J/K/mol
same,molar heat capacity at constant pressure,"313.15 K, m1 = 0.0836",75 ± 0.3 J/K/mol
same,molar heat capacity at constant pressure,"313.15 K, m1 = 0.1542",74.83 ± 0.3 J/K/mol
same,molar heat capacity at constant pressure,"313.15 K, m1 = 0.3085",74.51 ± 0.3 J/K/mol
same,molar heat capacity at constant pressure,"313.15 K, m1 = 0.5132",74.18 ± 0.3 J/K/mol
same,molar heat capacity at constant pressure,"318.15 K, m1 = 0.0132",75.21 ± 0.3 J/K/mol
same,molar heat capacity at constant pressure,"318.15 K, m1 = 0.0248",75.18 ± 0.3 J/K/mol
same,molar heat capacity at constant pressure,"318.15 K, m1 = 0.0503",75.11 ± 0.3 J/K/mol
same,molar heat capacity at constant pressure,"318.15 K, m1 = 0.0825",75.03 ± 0.3 J/K/mol
same,molar heat capacity at constant pressure,"318.15 K, m1 = 0.0836",75.03 ± 0.3 J/K/mol
same,molar heat capacity at constant pressure,"318.15 K, m1 = 0.1542",74.86 ± 0.3 J/K/mol
same,molar heat capacity at constant pressure,"318.15 K, m1 = 0.3085",74.56 ± 0.3 J/K/mol
same,molar heat capacity at constant pressure,"318.15 K, m1 = 0.5132",74.25 ± 0.3 J/K/mol
same,molar heat capacity at constant pressure,"323.15 K, m1 = 0.0132",75.24 ± 0.3 J/K/mol
same,molar heat capacity at constant pressure,"323.15 K, m1 = 0.0248",75.2 ± 0.3 J/K/mol
same,molar heat capacity at constant pressure,"323.15 K, m1 = 0.0503",75.14 ± 0.3 J/K/mol
same,molar heat capacity at constant pressure,"323.15 K, m1 = 0.0825",75.06 ± 0.3 J/K/mol
same,molar heat capacity at constant pressure,"323.15 K, m1 = 0.0836",75.06 ± 0.3 J/K/mol
same,molar heat capacity at constant pressure,"323.15 K, m1 = 0.1542",74.89 ± 0.3 J/K/mol
same,molar heat capacity at constant pressure,"323.15 K, m1 = 0.3085",74.61 ± 0.3 J/K/mol
same,molar heat capacity at constant pressure,"323.15 K, m1 = 0.5132",74.32 ± 0.3 J/K/mol
same,molar heat capacity at constant pressure,"328.15 K, m1 = 0.0132",75.27 ± 0.3 J/K/mol
same,molar heat capacity at constant pressure,"328.15 K, m1 = 0.0248",75.24 ± 0.3 J/K/mol
same,molar heat capacity at constant pressure,"328.15 K, m1 = 0.0503",75.17 ± 0.3 J/K/mol
same,molar heat capacity at constant pressure,"328.15 K, m1 = 0.0825",75.1 ± 0.3 J/K/mol
same,molar heat capacity at constant pressure,"328.15 K, m1 = 0.0836",75.09 ± 0.3 J/K/mol
same,molar heat capacity at constant pressure,"328.15 K, m1 = 0.1542",74.94 ± 0.3 J/K/mol
same,molar heat capacity at constant pressure,"328.15 K, m1 = 0.3085",74.66 ± 0.3 J/K/mol
same,molar heat capacity at constant pressure,"328.15 K, m1 = 0.5132",74.39 ± 0.3 J/K/mol
same,molar heat capacity at constant pressure,"333.15 K, m1 = 0.0132",75.31 ± 0.3 J/K/mol
same,molar heat capacity at constant pressure,"333.15 K, m1 = 0.0248",75.28 ± 0.3 J/K/mol
same,molar heat capacity at constant pressure,"333.15 K, m1 = 0.0503",75.21 ± 0.3 J/K/mol
same,molar heat capacity at constant pressure,"333.15 K, m1 = 0.0825",75.14 ± 0.3 J/K/mol
same,molar heat capacity at constant pressure,"333.15 K, m1 = 0.0836",75.14 ± 0.3 J/K/mol
same,molar heat capacity at constant pressure,"333.15 K, m1 = 0.1542",74.99 ± 0.3 J/K/mol
same,molar heat capacity at constant pressure,"333.15 K, m1 = 0.3085",74.72 ± 0.3 J/K/mol
same,molar heat capacity at constant pressure,"333.15 K, m1 = 0.5132",74.45 ± 0.3 J/K/mol
